In ChEMBL document CHEMBL2203214, “Polyether ionophores-promising bioactive molecules for cancer therapy” (Bioorg Med Chem Lett, 2012):
Converted amounts (≈) assume the structure as drawn.

Key:
[1] = test system: PC-3; assay: Antiproliferative activity against human PC3 cells after 48 hrs; format: functional, cell-based; settings: PC-3, 48 h
[2] = Antiproliferative activity against human VCaP cells; format: functional, cell-based
[3] = Potentiation of colchicine-induced cytotoxicity in human KB-C4 cells at 1 ug/mL relative to control; format: functional
[4] = Toxicity in chronic oral dosed mouse after 2 years; format: organism-based; settings: in vivo
[5] = test system: SNU-C1; assay: Antiproliferative activity against human SNU-C1 cells assessed as growth inhibition at 0.5 uM; format: functional; settings: read-out: GI
[6] = Toxicity in […] oral dosed dog after 1 year; format: organism-based, Canis lupus familiaris; settings: in vivo
[7] = Toxicity in chronic oral dosed rat after 2 years; format: organism-based; settings: in vivo
[8] = Toxicity in subchronic oral dosed rat after 3 months; format: organism-based; settings: in vivo
[9] = Antiproliferative activity against human NCI-H929 cells assessed as growth inhibition at 0.5 uM; format: functional; settings: read-out: GI
[10] = Toxicity in subchronic oral dosed dog after 3 months; format: organism-based, Canis lupus familiaris; settings: in vivo
[11] = Induction of apoptosis in malignant lymphocyte after 48 hrs; format: functional
[12] = test system: MDR; assay: Inhibition of MDR in human KB-C4 cells assessed as increase of vinblastine accumulation preincubated for 30 mins before vinblastine addition measured after drug washout relative to control; format: cell-based
[13] = Antiproliferative activity against human SCC cells assessed as non-viable cell level; format: functional
[14] = Inhibition of vinblastine binding to human KB-C4 cells; format: functional, cell-based
[15] = Cell cycle arrest in human SCC cells assessed as accumulation at G1/G0 phase after 24 hrs relative to control; format: functional, cell-based
[16] = test system: MDR; assay: Inhibition of MDR in human KB-C4 cells assessed as increase of vinblastine accumulation after 1 hr relative to control; format: cell-based

`CC[C@@H](C(=O)[C@@H](C)[C@@H](O)[C@H](C)[C@@H]1O[C@@H]([C@@H](CC)C(=O)O)CC[C@@H]1C)[C@H]1O[C@]2(C=C[C@@H](O)[C@]3(CC[C@@](C)([C@H]4CC[C@](O)(CC)[C@H](C)O4)O3)O2)[C@H](C)C[C@@H]1C` [SALINOMYCIN] gave an EC50 [1] of over 1000 nM and an EC50 [2] of 380 nM.

In the case of `CCC(=O)O[C@H]([C@H](C)[C@H]1O[C@@]2(CC[C@@](C)([C@H]3CC[C@@](C)([C@@H]4O[C@@H]([C@H]5O[C@@](O)(CO)[C@H](C)C[C@@H]5C)C[C@@H]4C)O3)O2)C[C@H](O)[C@H]1C)[C@H](C)C(=O)O` [LAIDLOMYCIN], the “fold change (FC)” value [3] is reported as 700.

Compound `CC[C@@]1([C@@H]2O[C@@H]([C@H]3O[C@@](O)(CO)[C@H](C)C[C@@H]3C)C[C@@H]2C)CC[C@H]([C@]2(C)CC[C@]3(C[C@H](O)[C@@H](C)[C@@H]([C@@H](C)[C@@H](OC)[C@H](C)C(=O)O)O3)O2)O1` [MONENSIN] has an NOAEL at 2 years [4] of 1.3 mg/kg/day, an inhibition of growth at 0.5 µM [5] of 50% and an NOAEL at 1 year [6] of 1.25 mg/kg/day. The NOAEL at 2 years [7] was 1.4 mg/kg/day, the NOAEL at 3 months [8] was 2 mg/kg and the inhibition of growth at 0.5 µM [9] was 50%. For the same compound, the NOAEL at 3 months [10] was 5 mg/kg/day.

Compound `C[C@H](CCC(=O)O)C[C@H](C)C[C@H](C)C(=O)/C=C(\O)[C@H](C)C[C@H](C)C/C=C/[C@@H](C)[C@@H](O)[C@@H](C)[C@@H](O)C[C@@H]1CC[C@@](C)([C@H]2CC[C@@](C)([C@@H](C)O)O2)O1` [IONOMYCIN] has an IC50 [11] of 230 nM.

`CCC[C@H](O)[C@@]1(CC)C[C@@H](C)[C@](O)([C@]2(C)C[C@H](C)[C@@H]([C@@H](CC)C(=O)[C@@H](C)[C@@H](O)[C@H](C)[C@H]3O[C@@](O)([C@H](CC)C(=O)O)[C@@H](C)[C@H](O)[C@H]3CC)O2)O1` [INOSTAMYCIN] gave a fold change (FC) [12] of 3, an Activity [13] of under 1% and an IC50 [14] of 0.94 µg/mL (≈ 1.34 µM). The fold change (FC) [15] was 1.2 and the fold change (FC) [16] was 4.
